Assay results published in patent US7833977B2, “Use of L-Carnitine as stabilizing agent of proteins” (Sigma-Tau Industrie Farmaceutiche Riunite S.p.A., priority 2000, dated 2010).
Entries after “also recorded” stand apart in the source; their conditions may differ.

Tests used:
α-crystallin [1] = test: Chaperone-like activity of α-crystallin from treated lenses (heat-induced βL-crystallin aggregation, light scattering at 360 nm); format: biochemical, rat; conditions: 100 or 200 μg α-crystallin + 200 μg βL-crystallin; 55° C. or 58° C.
Protocol: The following experiments were performed essentially as described elsewhere (Horwitz, J. (1992) Proc Natl Acad Sci USA. 89, 10449-10453). The chaperone-like activity of α-crystallin from control and H2O2±L-carnitine treated lenses was determined by heat denaturation studies. The extent to which the unmodified or modified α-crystallin preparation protected βL-crystallin (used as the target protein) from heat-induced denaturation and aggregation was assessed as follows: 100 μg or 200 μg of α-crystallin were added to 200 μg of βL-crystallin in a 1.5-ml cuvette and made up to a final volume of 1 ml with 50 mM phosphate buffer, pH 7.0. The cuvette was placed in a temperature-regulated cell holder attached to a UV spectrophotometer. Light scattering due to protein denaturation and aggregation was monitored at. 360 nm absorbance for 3,000 s at 55° C. or for 1,800 s at 58° C.
The chaperone properties of the purified water-soluble α-crystallin were determined by crystallin (target protein) aggregation assay. Characteristically, βL-crystallin aggregates at elevated temperatures. The addition of α-crystallin either prevents or decreases the heat-induced aggregation of βL-crystallin, which is measured by light scattering at 360 nm. Since the ratio of α to β determines the degree of protection against heat-induced aggregation, we used 100 μg or 200 μg of α-crystallin and 200 μg of βL-crystallin. […]

α-crystallin [2] = test: Tryptophan fluorescence of α-crystallin fractions from treated lenses; parameters: species or system rat; conditions: excitation 295 nm, emission 330 nm
Source text: The loss of-protein tryptophan fluorescence, an indicator of tryptophan oxidation, seems to be a marker of crystallin integrity. We therefore measured-tryptophan fluorescence in lens crystallin (Perkin-Elmer 650-40 spectrophotometer) according to a previously described method (Jones, R. H. V., and Hothersall, J. S. (1993), Exp Eye Res 57, 783-790). The excitation wavelength was set to 295 nm, and the fluorescence emission was detected at 330 nm.

α-crystallin [3] = test: GFAP gel forming assay (falling ball viscosimetry) with α-crystallin from treated lenses; format: biochemical, rat; conditions: α-crystallin from H2O2 ± L-carnitine-treated lenses; 37° C., 1 h
Source text: The sedimentation assay devised by Nicholl and Quinlan (Nicholl, I. D., and Quinlan, R. A. (1994), EMBO J 13, 945-953) was used to assess α-crystallin-induced inhibition of intermediate filament assembly. Purified porcine glial fibrillary acidic: protein (GFAP) was used for these studies; it was purified from porcine spinal cord by axonal flotation as described previously (Pemg, M. D., et al (1999), J Cell Sci. 112, 2099-2112, MacLean-Fletcher, S., and Pollard, T. D. (1980), Biochem Biophys Res Commun 96, 18-27). The gel formation assay was based on a method used to monitor actin binding protein activity by falling ball viscometry (Pemg, M. D., et al (1999), J Cell Sci. 112, 2099-2112). α-Crystallins were mixed with GFAP in 8 M urea, 20 mM Tris-HCI, pH 8.0, 5 mM EDTA, 25 mM 2-mercaptoethanol and then stepwise dialyzed in 10 mM Tris-HCI, pH 8.0, 25 mM 2-mercaptoethanol. Assembly of the GFAP intermediate filaments, in the presence or absence of α-crystallin, was induced by the addition of a 20-fold concentrated buffer to give a final concentration of 100 mM imidazole-HCI, pH 6.8, 0.5 mM DTT. A 100-μl aliquot of sample was loaded into a glass tube and used for the viscosity assay. The tube was then immersed in a 37° C. water bath for 1 h before the gel formation assay. A ball was then placed into the tube, and the ability of the solution to support the ball was monitored. […]

rat lenses = test: Rat lens organ culture exposed to H2O2 with or without L-carnitine; format: cell-based, Sprague-Dawley rats; conditions: after 24 h incubation with H2O2 ± L-carnitine
Protocol: Four-month-old Sprague-Dawley rats were anesthesized with 5 mg/kg xylazine and 65 mg/kg ketamine, and decapitated. Immediately after, eyes were enucleated, extracted and placed in 2 ml of modified TC-199 medium. Lens integrity was assessed by measuring protein leached into the medium after 30-60 min of culture; damaged lenses were discarded. One lens of each pair was placed in culture medium with no H2O2 and used as a control. […] The controlateral lens of each pair was placed in medium and, after equilibration under 5% CO2 at 37° C., was exposed to 500 μM H2O2 in the absence or presence of 300 μM L-carnitine. After 24 h of incubation, morphological characteristics and changes were recorded, and the lenses were photographed. The incubated lenses were rinsed with saline solution, blotted on filter paper, weighed, and then immediately processed for biochemical analysis. To determine lactate dehydrogenase (LDH) leakage, lenses were incubated individually in each different medium, and the medium was harvested daily and saved for LDH analysis.
Decapsulated lenses were homogenized with disposable pestles and then sonicated in extract buffer (20 mM HEPES, 0.2 mM EDTA, 0.5 mM dithiothreitol, 450 mM NaCl, 25% glycerol, […] leupeptin, 0.5 μg/ml protinin, 0.5 mM phenylmethanesulfonyl fluoride) on ice. Aliquots of the homogenate from each of the incubated lenses were removed for GSH and L-carnitine analysis. The remainder was centrifuged for 25 min at 20,000×g to separate the supernatant from the pellet. The pellet was washed with 1.0 ml buffer and dried under nitrogen. This fraction was designated “water-insoluble fraction”. The supernatant fraction was dialyzed twice against 3 ml of 0.025 mol/l phosphate buffer, pH 7.4 for 48 h and lyophilized. This fraction was designated “water-soluble” fraction. The water-soluble and water-insoluble fractions were delipidated with 3.0 ml chloroform:methanol (2:1) for 16 h under shaking followed by centrifugation at 2,000 g for 5 min.
The water-insoluble proteins were suspended in 0.2 M N-ethylmorpholine acetate (pH 8.1). An aliquot (10%) was used to quantitate the amount of total protein. Samples were digested by the sequential addition of proteolytic enzymes (collagenase, pronase, aminopeptidase and carboxypeptidase A, carboxypeptidase B and carboxypeptidase y), directly to the reaction mixture at 37° C. in the presence of 0.02% sodium azide. After enzymatic digestion, the free N-(γ-glutamyl)lysine isopeptide cross-link was resolved by HPLC and quantitated by amino acid analysis (Hohl, D., et al (1991), J Biol Chem. 266, 6626-6636). In a related set of experiments, the isopeptide content of lenses was determined without prior extraction. […]

lens crystallins = conditions: Swamy-Mruthinti and Carter 1999; cited from earlier work

SMILES | Capacity of α-crystallin to prevent heat-induced aggregation of βL-crystallin (α-crystallin [1]) | Loss of tryptophan fluorescence in α-crystallin (α-crystallin [2]) | Inhibition of GFAP gel formation by α-crystallin (α-crystallin [3]) | Lens clarity / opacification (rat lenses) | Lens morphology by optical and electron microscopy (rat lenses) | Effect on in vitro glycation of lens crystallins (lens crystallins)
OO [H2O2] | significant decrease | 2.7 fold | did not affect gel formation | became opaque | Ballooning, liquefaction and various degrees of fiber swelling | 
C[N+](C)(C)C[C@H](O)CC(=O)[O-] [L-carnitine] | prevented this negative effect | restored the basal value | blocked GFAP gel formation to the same extent as α-crystallin from control lenses | remained clear; also recorded: remained transparent | cell shape was unaltered and that fiber cells were intact | ineffective
CC(=O)O[C@H](CC(=O)[O-])C[N+](C)(C)C [acetyl L-carnitine] |  |  |  |  |  | decreased crystallin glycation
CC(=O)Oc1ccccc1C(=O)O [acetyl salicylic acid] |  |  |  |  |  | decreased crystallin glycation
